Test results from patent US20220273688A1, “Treatment of Glycosylation Deficiency Diseases” (Wellstat Therapeutics Corporation, priority 2014, published 2022).

What was measured:
[1] = test system: patient with congenital disorder of glycosylation (reduced availability of a uridine-diphospho sugar); experiment: Treatment of a CDG patient with oral uridine triacetate; type: in vivo, human; conditions: 2 grams per square meter of body surface area, three times per day
Description: A patient displaying developmental delays is diagnosed with a congenital disorder of glycosylation by detection of a mutation affecting glycosylation by reducing availability of a uridine-diphospho sugar, corroborated by biochemical measurements in cells from the patient. The patient is treated with oral uridine triacetate at a dose of 2 grams per square meter of body surface area, administered three times per day.

[2] = test system: patient with GNE myopathy; experiment: Treatment of a GNE myopathy patient with N-acetylmannosamine plus uridine triacetate; type: in vivo, human; conditions: uridine triacetate 2 g/m2 BSA twice per day with oral N-acetylmannosamine 3 to 10 grams per day
Description: A patient displaying progressive distal muscle weakness, with vacuoles and filamentous inclusions in a muscle biopsy, is diagnosed with GNE myopathy by testing for mutations in GNE, which result in impaired synthesis of endogenous sialic acid. The patient is treated with oral N-acetylmannosamine at a dose of 3 to 10 grams per day. The patient is also treated with uridine triacetate a dosage of 2 grams per square meter of body surface area administered twice per day.

[3] = test system: patient with GPT deficiency (Type II CDG); experiment: Treatment of a GPT deficiency patient with N-acetylglucosamine plus uridine triacetate; type: in vivo, human; conditions: uridine triacetate 2 g/m2 BSA twice per day with N-acetylglucosamine 200 mg/kg per day
Description: A patient displaying severe hypotonia, medically intractable seizures, developmental delay andmicrocephaly is diagnosed with a deficiency of activity of the enzyme GPT, a Type II CDG, by detection of a mutation in its encoding gene DPAGT-1. (“GPT” is the enzyme dolichol phosphate N-acetyl-glucosamine-1 phosphate transferase; “DPAGT-1” is the gene that encodes GPT.) The patient is treated with N-acetylglucosamine at a dose of 200 mg/kg per day. The patient is also treated with uridine triacetate a dosage of 2 grams per square meter of body surface area administered twice per day.

[4] = test system: patient with phosphoglucomutase-1 deficiency (Type II CDG); experiment: Treatment of a phosphoglucomutase-1 deficiency patient with d-galactose plus uridine triacetate; type: in vivo, human; conditions: uridine triacetate 2 g/m2 BSA twice per day with 1 gram/kg d-galactose per day
Text: A patient with multisystem disease consistent with phosphoglucomutase deficiency receives a definitive diagnosis via detection of impaired transferring glycosylation and a mutation in PGM-1.

[5] = test system: Phosphoglucomutase-1 (PGM-1) deficiency; conditions: galactose 0.5 to 1 g/kg per day; cited from earlier work

SMILES | response to treatment (protein glycosylation and clinical condition) [1] | clinical response versus N-acetylmannosamine alone [2] | clinical response versus N-acetylglucosamine alone [3] | clinical response versus d-galactose alone [4] | symptom resolution [5]
CC(=O)OC[C@H]1O[C@@H](n2ccc(=O)[nH]c2=O)[C@H](OC(C)=O)[C@@H]1OC(C)=O [uridine triacetate, 2′,3′,5′-tri-O-acetyluridine] | responds to treatment, displaying biochemical measures of improved protein glycosylation and concurrent improvements in clinical condition | improves the clinical response beyond that achieved with N-acetylmannosamine alone | improves the clinical response beyond that achieved with N-acetylglucosamine alone | improves the clinical response beyond that achieved with d-galactose alone | –
O=C[C@H](O)[C@@H](O)[C@@H](O)[C@H](O)CO [galactose] | – | – | – | – | partial resolution of some symptoms
